Data reported in patent US20190059368A1, “3,5-DIMETHOXYSTILBENE ANALOGS AND USES THEREOF” (The United States of America, as represented by the …, priority 2017, published 2019).

What was measured:
[1] = system: Meloidogyne incognita second-stage juveniles (J2); test: M. incognita assay with previously hatched J2 immersed in test solutions; conditions: in vivo
Description: (§1) Two types of assays were used to investigate activity against M. incognita: i) eggs were immersed in solutions of the test compounds, and ii) second-stage juveniles (J2) previously hatched from eggs were immersed in the test solutions. These assays were conducted with procedures similar to those in Meyer, et al. (J. Nematol. 2006, 38, 333). M. incognita race 1 (originally isolated in 2013 from a field in Maryland) was grown in the greenhouse on pepper (Capsicum annuum L.) cultivar PA-136. Egg masses were hand-picked from plant roots, rinsed three times with sterile distilled H2O, and agitated in 0.6% NaClO for 3.5 minutes to separate and surface-sterilize eggs. The eggs were rinsed in sterile distilled H2O and stored overnight at 4° C. before use in egg immersion assays. To collect J2 for direct immersion into the test compounds, sterilized eggs were placed into a hatching chamber made with a Spectra/Mesh Nylon Filter (openings 25 μm in diameter; Spectrum Laboratories Inc., Rancho Dominguez, Calif., USA) in an autoclaved dish. J2 that passed through the filter within 3 days were used immediately for assays.
The assays were conducted in 96-well polystyrene plates. For the assays with immersed eggs, each well received approximately 50 eggs in 35 μl of sterile deionized water (SDW). For assays with previously hatched J2, a suspension of approximately 50 J2 in 35 μl of SDW was placed into each well. Each well then received 165 μl of treatment or control. The solvent used to dissolve the test chemicals was a 1:1:1 mixture referred to herein as CTD: equal parts Cremophor® EL Castor Oil (BASF Corporation, Vandalia, Ill., USA), Tween 80® (Sigma-Aldrich, St. Louis, Mo., USA), and DMSO (Sigma-Aldrich). A high and low rate of each compound was tested. After addition to the nematode suspensions in the wells, the low and high rates were 83.3 and 166.7 μg/ml of each test compound, respectively, dissolved in 0.5% and 1.0% of each of the three combined solvents. Controls were CTD equivalent to the low and high rates, and SDW. Because of the large number of treatments, the test compounds were divided into two groups for the egg immersion assays. The compounds tested in the egg immersion Assay 1 were 3, 6a, 6e, 6f, 6g, 6n, 7a, 7c, 7e, 7f, 7n, 11, 12, 16, and 17. The compounds tested in the egg immersion Assay 2 were 6b, 6h, 6i, 6j, 6k, 6l , 7b, 7g, 7h, 7i, 7j, 7k, 7l, and 7m (data not shown). Test compounds used for assays with previously hatched J2 were selected based on results with the egg assays. […]
Each polystyrene culture plate was covered with a plastic adhesive sheet (Excel Scientific, Inc., Victorville, Calif., USA) and incubated at 25° C. […] In egg immersion assays, total numbers of hatched J2, and numbers of mobile and immobile J2, were counted after 2 and 7 days incubation in the test compounds. In the first assay with previously hatched J2, the numbers of mobile and immobile J2 were counted after 1 and 2 days incubation, the treatments removed and replaced with a SDW rinse, and 2 days later the mobile vs. immobile J2 counted again. […]
Data from the M. incognita assays were analyzed with the statistical package JMP 11.2.0 (SAS Institute, Cary, N.C., USA). Differences among numbers of hatched J2 in each treatment, and among percentage of mobile J2 per treatment (number mobile J2/total J2×100), were determined by the ANOVA, and means were compared using Tukey Kramer's adjustment for multiple comparisons (P<0.05). […]

[2] = system: Meloidogyne incognita eggs; test: M. incognita egg immersion assay (hatch and mobility of hatched J2); type: in vivo; conditions: for Percent mobile J2, assay 2: 2 days
Description: as §1
The assays were conducted in 96-well polystyrene plates. For the assays with immersed eggs, each well received approximately 50 eggs in 35 μl of sterile deionized water (SDW). For assays with previously hatched J2, a suspension of approximately 50 J2 in 35 μl of SDW was placed into each well. Each well then received 165 μl of treatment or control. The solvent used to dissolve the test chemicals was a 1:1:1 mixture referred to herein as CTD: equal parts Cremophor® EL Castor Oil (BASF Corporation, Vandalia, Ill., USA), Tween 80® (Sigma-Aldrich, St. Louis, Mo., USA), and DMSO (Sigma-Aldrich). A high and low rate of each compound was tested. After addition to the nematode suspensions in the wells, the low and high rates were 83.3 and 166.7 μg/ml of each test compound, respectively, dissolved in 0.5% and 1.0% of each of the three combined solvents. Controls were CTD equivalent to the low and high rates, and SDW. Because of the large number of treatments, the test compounds were divided into two groups for the egg immersion assays. The compounds tested in the egg immersion Assay 1 were 3, 6a, 6e, 6f, 6g, 6n, 7a, 7c, 7e, 7f, 7n, 11, 12, 16, and 17. The compounds tested in the egg immersion Assay 2 were 6b, 6h, 6i, 6j, 6k, 6l , 7b, 7g, 7h, 7i, 7j, 7k, 7l, and 7m (data not shown). Test compounds used for assays with previously hatched J2 were selected based on results with the egg assays. The five compounds tested were 6b, 6f, 6g, 6i, and 7k, high and low rates.
Each polystyrene culture plate was covered with a plastic adhesive sheet (Excel Scientific, Inc., Victorville, Calif., USA) and incubated at 25° C. Ten wells (water controls) or five wells (all other treatments) were used per treatment in each assay. In egg immersion assays, total numbers of hatched J2, and numbers of mobile and immobile J2, were counted after 2 and 7 days incubation in the test compounds. In the first assay with previously hatched J2, the numbers of mobile and immobile J2 were counted after 1 and 2 days incubation, the treatments removed and replaced with a SDW rinse, and 2 days later the mobile vs. immobile J2 counted again. In assays with 6g and 7k, high rates and counts were made on Days 1, 2, 4, and 6, without a SDW rinse.
Data from the M. incognita assays were analyzed with the statistical package JMP 11.2.0 (SAS Institute, Cary, N.C., USA). Differences among numbers of hatched J2 in each treatment, and among percentage of mobile J2 per treatment (number mobile J2/total J2×100), were determined by the ANOVA, and means were compared using Tukey Kramer's adjustment for multiple comparisons (P<0.05). For percent mobile J2 on Day 2 in egg immersion Assays 1 and 2, and Day 4 with the five compounds in the J2 immersion assay, data were log10 (x+1)-transformed before analysis. Data presented are nontransformed means.

COc1ccc(/C=C\c2cc(OC)c(C)c(OC)c2)cc1OC [Compound 7k, (Z)-1,3-dimethoxy-5-(3,4-dimethoxystyryl)-2-methylbenzene]
effect on mobility of J2 previously hatched in water and immersed directly (in words) [1]: had an effect on J2 mobility | Percent mobile J2, assay 2 ([2]; high rate (166.7 μg/ml)): 72.2% | Percent mobile J2, assay 2 ([2]; low rate (83.3 μg/ml)): 92.5% | effect on mobility of J2 hatched from eggs immersed in solutions (in words) ([2]; in vivo): some suppressive effect on mobility
